Data published in US20180265915A1, “TRANSCRIPTION FACTOR DECOYS” (priority 2008, published 2018).
Entries after “also recorded” stand apart in the source; their conditions may differ.

Tests used:
M. smegmatis = test: WhiB7 decoy antibiotic sensitisation, growth in shake flasks; assay type: cell-based, Mycobacterium smegmatis; conditions: 100 nM TFD; sub-inhibitory isoniazid (IZ) or rifampicin (RF); 9H11 + 10% ODAC, 37° C.
Description: A decoy polynucleotide containing the WhiB7 decoy sequence was prepared as described in Example 1.1 and various concentrations were used to transfect M. smegmatis grown in 20 ml of broth (in 200 ml shake flasks containing a wire baffle). The media used was 9H11 (Becton Dickinson) supplemented with 10% ODAC (Becton Dickinson) and sub-inhibitory concentrations of the antibiotics isoniazid (IZ) or rifampicin (RF). The flasks were incubated at 37° C. with shaking and at various intervals samples were withdrawn and their absorbance measured (to monitor cell growth). Flasks were either treated with 100 nM of the WhiB7 TFD (+) or treated with the negative control TFD (−).

S. aureus [1] = test: Growth of S. aureus transfected by electroporation under conditions of stress; assay type: cell-based, Staphylococcus aureus; conditions: BHI or LB media with 30 mM KOH, vs mock-electroporation or unrelated sequence
Description: For example, stress response can be induced in a suitable strain e.g. S. aureus by growing in, e.g. LB media under conditions of stress, e.g. alkali conditions. For example LB media containing KOH, e.g. at 30 mM may be used. Untreated bacteria grow well in this media, due to the induction of the stress response by the alkali conditions, whereas those treated with the SA_sigB decoy, targeting the regulation of sigB which is a major part of the regulatory response to stress, grow poorly.
Decoy polynucleotides were transfected into S. aureus by electroporation. Bacterial cells were prepared by standard methods. Briefy, cells were grown to early exponential phase in LB media at 37° C. as defined as reaching an Absorbance of 0.3 at […]. The cells were chilled to 4° C. and harvested by low speed centrifugation and washed three times in a similar volume of sterile, ice-cold 10% (v/v) glycerol. Finally the cells were resuspended in a tenth of their original volume in 10% glycerol. […] 200 μl of cells were aliquoted into wells of a 96 well plate that was incubated at 37° C. with moderate shaking, growth was monitored by measuring absorbance.

S. aureus [2] = test: Growth studies in 96-well plates (DOTAP/Gramicidin transfection); assay type: cell-based, Staphylococcus aureus; conditions: 10 nM TFD, DOTAP, 60 nM Gramicidin
Description: Cholesterol/Cy5-labeled decoy polynucleotides were prepared as in section 5.1. Typically 1 Lg of TFD was then complexed with 0.3 μl of the liposomal transfection reagent DOTAP (Roche) and incubated at room temperature for 10 min. The assays to determine their effect on growth of bacterial cells were performed using 96 well plates, each well containing 200 μl of broth consisting of BHI media (from Becton Dickinson), which is not iron-limited, supplemented with 60 nM Gramicidin (from Sigma Corporation. Cat# G5002) or iron-depleted media (NRPMI) similarly supplemented with Gramicidin. The method for iron-depletion is described in full elsewhere (Science (2004) 305:1626-1628). 1 μl of various concentrations of a Cholesterol/Cy5-labeled decoy complexed with TFD were added to each well and their effect on bacterial growth of S. aureus monitored by measuring absorbance of the broth at intervals during incubation. The plates were incubated at 37° C. with shaking and absorbance readings (at 450 nM) were taken using a plate reader. Several decoys were tested: Sig, fhu and SsaA.

E. coli [3] = test: FabB decoy growth assay with cerulenin in 96-well plate; assay type: cell-based, Escherichia coli; conditions: Rich media supplemented with 1 μg/ml cerulenin
Description: The decoy was prepared as described in Example 1.1 and used at various concentrations to transfect a well of a 96-well plate containing 200 μl of Rich media (10 g Tryptone, 5 g NaCl, 1 g Yeast extract per litre and supplemented with 0.2% glucose and 0.4% acetate, final concentrations) supplemented with 1 μg/ml cerulenin (Sigma). The plates were incubated at 37° C. with shaking and absorbance readings (at 595 nM) were taken using a plate reader. All data points were performed in triplicate.

E. coli [4] = test: FabB TFD growth assay with cerulenin in LB, polymixin co-transfectant; assay type: cell-based, Escherichia coli
Description: For example, a FabB decoy which targets the regulation of genes essential for fatty acid synthesis may be tested against suitable strain, e.g. E. coli grown in e.g. Luria-Bertani LB media (1% [w/v] Bacto-tryptone, 0.5% [w/v] Yeast extract, 1% [w/v] NaCl) in the presence of an antibiotic which acts on the process of fatty acid synthesis, e.g. Cerulenin.
The effect of TFDs on the growth of E. coli bacterial cultures was measured as described in Example 4.1 with a few modifications: the media used was LB; the co-transfectant used was 40 nM polymixin, rather than gramicidin; the media was also supplemented with 10 μg/ml Cerulenin (CER). CER is an antibiotic that acts on fatty acid synthesis.

## WhiB7 TFD: decoy with WhiB7 binding site, SEQ ID NO: 5, prepared by PCR with cholesterol/Cy5 primers (DNA TGGCCACGGATCCGGGTGACTGCGGGTCCGTGGCCT; PCR-made decoy including vector flanks, 5' cholesterol and Cy5 primer ends, further chemistry not given here)
M. smegmatis
  sensitivity of cells to the antibiotics tested (growth by absorbance): rendered sensitive to both the antibiotics tested

## SsaA TFD: contains the binding site for the two-component regulator WalR, SEQ ID NO: 8 (DNA ATTACAAATTTGTAACAGACTTATTTTA; transcription factor decoy, made by PCR or oligonucleotide ligation, further chemistry not given here; listed as Staphylococcus aureus)
S. aureus [1]
  growth of S. aureus under conditions of stress: capable of slowing the growth
S. aureus [2]
  effect on bacterial growth in BHI medium (non-iron limiting): measurable delay in bacterial growth
S. aureus [2]; NRPMI
  effect on bacterial growth in iron-limited media: no effect on bacterial growth

## FabB TFD: decoy containing the binding site for the FadR regulator, SEQ ID NO: 6 (DNA TTTATTCCGAACTGATCGGACTTGTTCAGCGTACACGTGTTAGCTATCCTGCGTGCTTCA; transcription factor decoy, method of preparation not given here for this one, further chemistry not given here)
E. coli [3]
  growth of E. coli in broth (absorbance at 595 nM): caused the cells to hardly grow at all
E. coli [4]; 10 nM TFD, LB, 40 nM polymixin, 10 μg/ml Cerulenin
  sensitivity of E. coli to the action of cerulenin: sensitises the bacteria to antibiotics (cerulenin); also recorded: rendered the bacteria sensitive to the action of cerulenin
E. coli [4]; FabB TFD plus cerulenin
  effect on cells at 20 ug/ml cerulenin: the cells are being killed by the synergenistic action
E. coli [4]; LB media, Cerulenin 10 μg/ml
  growth of E. coli treated with the decoy versus untreated: grow markedly more slowly and to lower final density
